Consider 4 compounds from patent US20120070417A1, “ANTI-INFLUENZA FORMULATIONS AND METHODS” (priority 2009, published 2012).

The experiment concerns Influenza A/WSN/33/1. Type of experiment: cell-based.

Read-outs that look alike come from different tables or passages of the source.

As for `CCOC(=O)C1=C[C@@H](OC(CC)CC)[C@H](NC(C)=O)[C@@H](N)C1` [oseltamivir, (3R,4R,5S)-4-acetylamino-5-amino-3(1-ethylpropoxy)-1-cyclohexene-1-carboxylic acid ethyl ester], the “reduced influenza titers compared to untreated (air) control” value (from here on “reduced influenza titers”) (1 nM oseltamivir in basolateral media) was 5 fold.
Regarding `NC(=O)c1ncn([C@@H]2O[C@H](CO)[C@@H](O)[C@H]2O)n1` [ribavirin], the “reduced influenza titers” value (10 nM ribavirin in basolateral media, p>0.05) is given as 6.3 fold.
Turning to `CC(N)C12CC3CC(CC(C3)C1)C2` (stereo not drawn) [rimantadine], for the setting “1 nM rimantadine in basolateral media, p>0.05”, the “reduced influenza titers” value came out at 9.6 fold. Further, the “reduced viral titers compared to the untreated control” value (10 nM rimantadine in basolateral media, p<0.001) came out at 185 fold.
Consider `CC(=O)NC1[C@@H](NC(=N)N)C=C(C(=O)O)O[C@H]1[C@H](O)[C@H](O)CO` (stereo partly drawn) [zanamivir, 5-(acetylamino)-4-[(aminoiminomethyl)-amino]-2,6-anhydro-3,4,5-trideoxy-D-glycero-D-galacto-non-2-enoic acid], for which, under “0.1 nM zanamivir alone”, the “reduced viral titers compared to the untreated control” value was 40 fold. In addition, the “viral infection, dose response” value ([…], p<0.01 vs untreated (Air) control) is recorded as “reduced viral infection in a dose responsive manner”.
